In US10729135B2, “Methods of controlling pests using terpendoles” (priority 2017, dated 2020):
Where two headings read alike, the source gives them in different places.

Legend:
Type in all cases: in vivo
[1] = tested on: green peach aphids (Myzus persicae); assay: LC50 biological efficacy assay on green peach aphids, aerosolized dilutions on infested radish leaves
Protocol: Biological efficacy assays utilizing terpendoles were conducted on green peach aphids (Myzus persicae). Specifically, terpendole A, terpendole C, terpendole J, terpendole K, terpendole N, terpendole O and terpendole P were each separately applied in serial dilutions to determine the concentration at which 50% control of green peach aphids occurred over a period of 24-48 hours (“LC50”). Radish leaves infested with green peach aphids were treated, top and bottom, with a total of 500 μl of an aerosolized terpendole dilution. Treated, aphid infested leaves were held in greenhouse conditions and evaluated for efficacy at 24 and 48 h.

[2] = tested on: two-spotted spider mite (Tetranychus urticae); assay: whole plant or invertebrate; settings: Kidney Bean, All stages; for mortality at 12.5 ppm / mortality at 50 ppm / mortality at 200 ppm / mortality at 500 ppm: Tetranychus urticae, read-out: Mortality score; for Appetite suppression score: key: 0 = no to little suppression; 1 = about 10% suppression; 2 = about 25% suppression; 3 = about 60% suppression; 4 = 70-100% suppression
Protocol: (§1) A bioefficacy assay utilizing terpendole C was conducted on the lepidopterans: diamondback moth (Plutella xylostella) and common cutworm (Spodoptera litura): the whitefly, tobacco whitefly (Bemisia tabaci) the thrips, western flower thrips (Frankliniella occidentalis); the planthopper, brown rice planthopper (Nilaparvata lugens); the aphids, cotton aphid (Aphis gossypii), foxglove aphid (Aulacorthum solani), cabbage aphid (Brevicoryne brassicae), birdcherry-oat aphid (Rhopalosiphum padi), green peach aphid (Myzus persicae); and the mite, two-spotted spider mite (Tetranychus urticae). Specifically, terpendole C was diluted with acetone and 5% Tween® 20 and finally diluted with water to prepare spray solutions. Terpendole C was then applied to plants as a foliar spray at 500, 200, 50, 12.5, 3.1, 1, 0.8 and/or 0.2 ppm and/or as a soil treatment at 2,500, 1,000, 250, 63, 16, 4 and/or 1 ppm. Pests were then placed on the plant or in the soil. Further, mortality and appetite suppression were recorded at 6, 7 and/or 13 days after treatment (“DAT”) and are reported in Tables 2 and 3, below, respectively.

[3] = tested on: common cutworm (Spodoptera litura); assay: whole plant or invertebrate
Protocol: as §1

[4] = tested on: foxglove aphid (Aulacorthum solani); assay: whole plant or invertebrate
Protocol: as §1

[5] = tested on: birdcherry-oat aphid (Rhopalosiphum padi); assay: whole plant or invertebrate
Protocol: as §1

[6] = tested on: green peach aphid (Myzus persicae); assay: whole plant or invertebrate
Protocol: as §1

[7] = tested on: western flower thrips (Frankliniella occidentalis); assay: whole plant or invertebrate; settings: 12.5 ppm; Kidney Bean; 1st-2nd instar; 6 DAT
Protocol: as §1

**Q.** CC(C)=C[C@H]1O[C@H]2[C@H]3O[C@@]34[C@H](CC[C@@]3(C)[C@@]4(O)CC[C@H]4Cc5c([nH]c6ccccc56)[C@@]43C)O[C@@H]2C(C)(C)O1 [Terpendole C, terpendole C] was tested. Which LC50 ([1]; concentration for 50% control over 24-48 hours, infested radish leaves, 500 μl aerosolized dilution) did it give?
**A.** Its LC50 is 20 ppm.

**Q.** What about the “control of green peach aphids (in words)” value ([1]; summary of Table 1) of the same compound?
**A.** The value was “effectively controlled”.

**Q.** What about the Appetite suppression score ([2]; 12.5 ppm, 7 DAT) of the same compound?
**A.** Its Appetite suppression score is 0.

**Q.** And the Appetite suppression score ([2]; 12.5 ppm, 13 DAT)?
**A.** Its Appetite suppression score is 0.

**Q.** And the Appetite suppression score ([2]; 50 ppm, 7 DAT)?
**A.** The Appetite suppression score was 0.

**Q.** And the Appetite suppression score ([2]; 50 ppm, 13 DAT)?
**A.** Its Appetite suppression score is 0.

**Q.** What about the Appetite suppression score ([2]; 200 ppm, 7 DAT) of the same compound?
**A.** Its Appetite suppression score is 0.

**Q.** What about the Appetite suppression score ([2]; 200 ppm, 13 DAT) of the same compound?
**A.** The Appetite suppression score was 0.

**Q.** And the Appetite suppression score ([2]; 500 ppm, 7 DAT)?
**A.** The Appetite suppression score was 0.

**Q.** And the Appetite suppression score ([2]; 500 ppm, 13 DAT)?
**A.** The Appetite suppression score was 0.

**Q.** What about the mortality at 12.5 ppm ([2]; 168 h, 12.5 ppm, 7 DAT) of the same compound?
**A.** The mortality at 12.5 ppm was less than 29%.

**Q.** What about the mortality at 50 ppm ([2]; 168 h, 50 ppm, 7 DAT) of the same compound?
**A.** The mortality at 50 ppm was less than 29%.

**Q.** What about the mortality at 200 ppm ([2]; 168 h, 200 ppm, 7 DAT) of the same compound?
**A.** The mortality at 200 ppm was less than 29%.

**Q.** What about the mortality at 500 ppm ([2]; 168 h, 500 ppm, 7 DAT) of the same compound?
**A.** The mortality at 500 ppm was less than 29%.

**Q.** What about the mortality at 12.5 ppm ([2]; 312 h, 12.5 ppm, 13 DAT) of the same compound?
**A.** The mortality at 12.5 ppm was less than 29%.

**Q.** And the mortality at 50 ppm ([2]; 312 h, 50 ppm, 13 DAT)?
**A.** The mortality at 50 ppm was less than 29%.

**Q.** And the mortality at 200 ppm ([2]; 312 h, 200 ppm, 13 DAT)?
**A.** Its mortality at 200 ppm is less than 29%.

**Q.** And the mortality at 500 ppm ([2]; 312 h, 500 ppm, 13 DAT)?
**A.** Its mortality at 500 ppm is less than 29%.

**Q.** And the Appetite suppression score ([3]; 12.5 ppm, Cabbage, 4th instar, 6 DAT)?
**A.** The Appetite suppression score was 4 (4 = 70-100% suppression).

**Q.** And the Appetite suppression score ([3]; 50 ppm, Cabbage, 4th instar, 6 DAT)?
**A.** The Appetite suppression score was 4 (4 = 70-100% suppression).

**Q.** What about the Appetite suppression score ([3]; 200 ppm, Cabbage, 4th instar, 6 DAT) of the same compound?
**A.** Its Appetite suppression score is 4 (4 = 70-100% suppression).

**Q.** What about the Appetite suppression score ([3]; 500 ppm, Cabbage, 4th instar, 6 DAT) of the same compound?
**A.** Its Appetite suppression score is 4 (4 = 70-100% suppression).

**Q.** And the mortality at 12.5 ppm ([3]; Spodoptera litura, 144 h, 12.5 ppm, Cabbage, 4th instar, 6 DAT, read-out: Mortality score)?
**A.** The mortality at 12.5 ppm was less than 29%.

**Q.** And the mortality at 50 ppm ([3]; Spodoptera litura, 144 h, 50 ppm, Cabbage, 4th instar, 6 DAT, read-out: Mortality score)?
**A.** The mortality at 50 ppm was less than 29%.

**Q.** What about the mortality at 200 ppm ([3]; Spodoptera litura, 144 h, 200 ppm, Cabbage, 4th instar, 6 DAT, read-out: Mortality score) of the same compound?
**A.** Its mortality at 200 ppm is less than 29%.

**Q.** What about the mortality at 500 ppm ([3]; Spodoptera litura, 144 h, 500 ppm, Cabbage, 4th instar, 6 DAT, read-out: Mortality score) of the same compound?
**A.** The mortality at 500 ppm was less than 29%.

**Q.** And the “control of common cutworm (in words)” value ([3]; either by killing the larvae or suppressing the appetite of the larvae)?
**A.** The value was “effectively controlled”.

**Q.** And the Appetite suppression score ([4]; 12.5 ppm, Kidney Bean, Adult, 6 DAT)?
**A.** The Appetite suppression score was 0.

**Q.** What about the Appetite suppression score ([4]; 50 ppm, Kidney Bean, Adult, 6 DAT) of the same compound?
**A.** Its Appetite suppression score is 0.

**Q.** What about the Appetite suppression score ([4]; 200 ppm, Kidney Bean, Adult, 6 DAT) of the same compound?
**A.** Its Appetite suppression score is 0.

**Q.** What about the Appetite suppression score ([4]; 500 ppm, Kidney Bean, Adult, 6 DAT) of the same compound?
**A.** Its Appetite suppression score is 2 (2 = about 25% suppression).

**Q.** What about the mortality at 12.5 ppm ([4]; Aulacorthum solani, 144 h, 12.5 ppm, Kidney Bean, Adult, 6 DAT, read-out: Mortality score) of the same compound?
**A.** Its mortality at 12.5 ppm is less than 29%.

**Q.** And the mortality at 50 ppm ([4]; Aulacorthum solani, 144 h, 50 ppm, Kidney Bean, Adult, 6 DAT, read-out: Mortality score)?
**A.** The mortality at 50 ppm was less than 29%.

**Q.** What about the mortality at 200 ppm ([4]; Aulacorthum solani, 144 h, 200 ppm, Kidney Bean, Adult, 6 DAT, read-out: Mortality score (converted)) of the same compound?
**A.** The mortality at 200 ppm was 50%.

**Q.** What about the mortality at 500 ppm ([4]; Aulacorthum solani, 144 h, 500 ppm, Kidney Bean, Adult, 6 DAT, read-out: Mortality score (converted)) of the same compound?
**A.** The mortality at 500 ppm was 75%.

**Q.** What about the “control of foxglove aphids (in words)” value ([4]; summary of Table 2) of the same compound?
**A.** The value was “effectively controlled”.

**Q.** What about the mortality at 0.8 ppm ([5]; Rhopalosiphum padi, 144 h, 0.8 ppm, Wheat, All stages, 6 DAT, read-out: Mortality score) of the same compound?
**A.** Its mortality at 0.8 ppm is less than 29%.

**Q.** And the mortality at 3.1 ppm ([5]; Rhopalosiphum padi, 144 h, 3.1 ppm, Wheat, All stages, 6 DAT, read-out: Mortality score)?
**A.** The mortality at 3.1 ppm was less than 29%.

**Q.** What about the mortality at 12.5 ppm ([5]; Rhopalosiphum padi, 144 h, 12.5 ppm, Wheat, All stages, 6 DAT, read-out: Mortality score (converted)) of the same compound?
**A.** The mortality at 12.5 ppm was 50%.

**Q.** What about the mortality at 50 ppm ([5]; Rhopalosiphum padi, 144 h, 50 ppm, Wheat, All stages, 6 DAT, read-out: Mortality score (converted)) of the same compound?
**A.** Its mortality at 50 ppm is 75%.

**Q.** And the mortality at 200 ppm ([5]; Rhopalosiphum padi, 144 h, 200 ppm, Wheat, All stages, 6 DAT, read-out: Mortality score (converted))?
**A.** Its mortality at 200 ppm is 90%.

**Q.** And the “control of birdcherry-oat aphids (in words)” value ([5]; summary of Table 2)?
**A.** The value was “effectively controlled”.

**Q.** What about the mortality at 0.8 ppm ([6]; Myzus persicae, 144 h, 0.8 ppm, Cabbage, All stages, 6 DAT, read-out: Mortality score) of the same compound?
**A.** Its mortality at 0.8 ppm is less than 29%.

**Q.** What about the mortality at 3.1 ppm ([6]; Myzus persicae, 144 h, 3.1 ppm, Cabbage, All stages, 6 DAT, read-out: Mortality score (converted)) of the same compound?
**A.** The mortality at 3.1 ppm was 50%.

**Q.** What about the mortality at 12.5 ppm ([6]; Myzus persicae, 144 h, 12.5 ppm, Cabbage, All stages, 6 DAT, read-out: Mortality score (converted)) of the same compound?
**A.** Its mortality at 12.5 ppm is 75%.

**Q.** And the mortality at 50 ppm ([6]; Myzus persicae, 144 h, 50 ppm, Cabbage, All stages, 6 DAT, read-out: Mortality score (converted))?
**A.** The mortality at 50 ppm was 90%.

**Q.** What about the mortality at 200 ppm ([6]; Myzus persicae, 144 h, 200 ppm, Cabbage, All stages, 6 DAT, read-out: Mortality score (converted)) of the same compound?
**A.** Its mortality at 200 ppm is 100%.

**Q.** And the “control of green peach aphids (in words)” value ([6]; summary of Table 2)?
**A.** Its value is “effectively controlled”.

**Q.** What about the Appetite suppression score [7] of the same compound?
**A.** Its Appetite suppression score is 3-4.
